# BindingDB's records for doi:10.1021/jm051056c (Targegen, 2007)
# pIC50: −log10 of the molar value.
# Molecular target: Phosphatidylinositol 4,5-bisphosphate 3-kinase catalytic subunit gamma isoform (Homo sapiens, UniProt P48736)
# Test: Determination of PI3K Activity
# Details: pH 7.4; 22 °C
# Sequence of Phosphatidylinositol 4,5-bisphosphate 3-kinase catalytic subunit gamma isoform (P48736 whole entry, canonical isoform): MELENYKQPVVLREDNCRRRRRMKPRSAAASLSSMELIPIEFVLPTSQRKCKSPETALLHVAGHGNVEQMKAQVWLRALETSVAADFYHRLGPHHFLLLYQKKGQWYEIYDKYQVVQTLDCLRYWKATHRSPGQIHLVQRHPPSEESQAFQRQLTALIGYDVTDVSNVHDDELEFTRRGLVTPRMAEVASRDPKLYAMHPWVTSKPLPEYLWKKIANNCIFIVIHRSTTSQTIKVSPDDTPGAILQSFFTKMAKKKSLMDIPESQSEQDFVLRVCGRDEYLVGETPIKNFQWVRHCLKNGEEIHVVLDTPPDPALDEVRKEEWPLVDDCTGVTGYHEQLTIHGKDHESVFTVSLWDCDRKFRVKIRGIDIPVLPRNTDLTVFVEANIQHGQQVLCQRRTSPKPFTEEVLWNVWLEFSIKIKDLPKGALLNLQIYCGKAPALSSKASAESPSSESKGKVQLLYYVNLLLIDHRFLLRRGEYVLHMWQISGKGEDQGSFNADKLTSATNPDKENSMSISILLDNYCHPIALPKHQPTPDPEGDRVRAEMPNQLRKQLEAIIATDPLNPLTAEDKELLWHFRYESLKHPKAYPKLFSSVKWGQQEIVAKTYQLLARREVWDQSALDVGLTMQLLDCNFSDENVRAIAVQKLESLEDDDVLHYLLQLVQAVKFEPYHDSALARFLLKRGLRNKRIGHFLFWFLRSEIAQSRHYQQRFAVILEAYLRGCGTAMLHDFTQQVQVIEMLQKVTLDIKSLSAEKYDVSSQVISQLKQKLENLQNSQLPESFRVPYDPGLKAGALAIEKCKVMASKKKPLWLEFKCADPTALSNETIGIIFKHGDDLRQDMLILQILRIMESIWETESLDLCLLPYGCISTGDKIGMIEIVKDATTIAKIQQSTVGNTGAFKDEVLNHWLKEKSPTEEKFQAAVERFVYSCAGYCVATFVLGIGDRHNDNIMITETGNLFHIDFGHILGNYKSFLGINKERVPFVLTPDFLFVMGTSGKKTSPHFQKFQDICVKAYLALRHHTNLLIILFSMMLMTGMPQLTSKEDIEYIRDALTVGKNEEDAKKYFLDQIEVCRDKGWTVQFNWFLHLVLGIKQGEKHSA
smiles,measurement,value
"COc1cccc(-c2nc3nc(N)nc(N)c3nc2-c2cccc(OC)c2)c1 [6,7-bis(3-methoxyphenyl)pteridine-2,4-diamine]",pIC50,4.90
